According to PubChem BioAssay (NCI):
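Protocol summary: plate cells (96-well), add compound at 5 concentrations, incubate 48 h, interpolate endpoints linearly. TGI: total growth inhibition.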

Legend:
Test in all cases: inhibition of tumour cell growth, NCI panel, 48 h
IGROV1 ovarian = test system: IGROV1 ovarian
SF-539 CNS = test system: SF-539 CNS
NCI-H460 lung = test system: NCI-H460 lung
MOLT-4 leukemia = test system: MOLT-4 leukemia
HL-60(TB) leukemia = test system: HL-60(TB) leukemia
UO-31 renal = test system: UO-31 renal
NCI/ADR-RES ovarian = test system: NCI/ADR-RES ovarian
MDA-MB-435 = test system: MDA-MB-435
ACHN renal = test system: ACHN renal
UACC-257 melanoma = test system: UACC-257 melanoma
RPMI-8226 leukemia = test system: RPMI-8226 leukemia
HT29 colon = test system: HT29 colon
SF-268 CNS = test system: SF-268 CNS
CCRF-CEM leukemia = test system: CCRF-CEM leukemia
MDA-MB-231 breast = test system: MDA-MB-231 breast
NCI-H226 lung = test system: NCI-H226 lung
LOX IMVI melanoma = test system: LOX IMVI melanoma
HCC-2998 colon = test system: HCC-2998 colon
K-562 leukemia = test system: K-562 leukemia
COLO 205 colon = test system: COLO 205 colon
HOP-62 NSCLC = test system: HOP-62 NSCLC
PC-3 prostate = test system: PC-3 prostate
MCF7 breast = test system: MCF7 breast
CAKI-1 renal = test system: CAKI-1 renal
UACC-62 melanoma = test system: UACC-62 melanoma
OVCAR-8 ovarian = test system: OVCAR-8 ovarian
SK-OV-3 ovarian = test system: SK-OV-3 ovarian
RXF 393 renal = test system: RXF 393 renal
786-0 renal = test system: 786-0 renal
OVCAR-3 ovarian = test system: OVCAR-3 ovarian
SK-MEL-2 melanoma = test system: SK-MEL-2 melanoma
SK-MEL-5 melanoma = test system: SK-MEL-5 melanoma
HCT-15 colon = test system: HCT-15 colon
KM12 colon = test system: KM12 colon
NCI-H522 lung = test system: NCI-H522 lung
A549 NSCLC = test system: A549 NSCLC
TK-10 renal = test system: TK-10 renal
A498 renal = test system: A498 renal
SNB-75 CNS = test system: SNB-75 CNS
OVCAR-5 ovarian = test system: OVCAR-5 ovarian
U251 CNS = test system: U251 CNS
SNB-19 CNS = test system: SNB-19 CNS
SR leukemia = test system: SR leukemia
SW-620 colon = test system: SW-620 colon
SK-MEL-28 melanoma = test system: SK-MEL-28 melanoma
T-47D breast = test system: T-47D breast
HOP-92 NSCLC = test system: HOP-92 NSCLC
M14 melanoma = test system: M14 melanoma
HS 578T breast = test system: HS 578T breast
NCI-H23 lung = test system: NCI-H23 lung
BT-549 breast = test system: BT-549 breast
OVCAR-4 ovarian = test system: OVCAR-4 ovarian
HCT-116 colon = test system: HCT-116 colon
SF-295 CNS = test system: SF-295 CNS
SN12C renal = test system: SN12C renal
DU-145 prostate = test system: DU-145 prostate
EKVX NSCLC = test system: EKVX NSCLC

Q: For `CC1=NN(c2nc(N)nc(CSCc3nc(N)nc(N(C)C)n3)n2)C(C)(C)C1`, which TGI (IGROV1 ovarian) is on record?
A: > 100 µM

Q: What about the TGI (SF-539 CNS) of the same compound?
A: > 100 µM

Q: And the TGI (NCI-H460 lung)?
A: > 100 µM

Q: And the TGI (MOLT-4 leukemia)?
A: > 100 µM

Q: What about the TGI (HL-60(TB) leukemia) of the same compound?
A: > 100 µM

Q: What about the TGI (UO-31 renal) of the same compound?
A: > 100 µM

Q: What about the TGI (NCI/ADR-RES ovarian) of the same compound?
A: > 100 µM

Q: And the TGI (MDA-MB-435)?
A: > 100 µM

Q: And the TGI (ACHN renal)?
A: > 100 µM

Q: And the TGI (UACC-257 melanoma)?
A: > 100 µM

Q: What about the TGI (RPMI-8226 leukemia) of the same compound?
A: > 100 µM

Q: What about the TGI (HT29 colon) of the same compound?
A: > 100 µM

Q: What about the TGI (SF-268 CNS) of the same compound?
A: > 100 µM

Q: What about the TGI (CCRF-CEM leukemia) of the same compound?
A: > 100 µM

Q: And the TGI (MDA-MB-231 breast)?
A: > 100 µM

Q: And the TGI (NCI-H226 lung)?
A: > 100 µM

Q: And the TGI (LOX IMVI melanoma)?
A: > 100 µM

Q: And the TGI (HCC-2998 colon)?
A: > 100 µM

Q: And the TGI (K-562 leukemia)?
A: 32.1 µM

Q: What about the TGI (COLO 205 colon) of the same compound?
A: > 100 µM

Q: And the TGI (HOP-62 NSCLC)?
A: > 100 µM

Q: What about the TGI (PC-3 prostate) of the same compound?
A: > 100 µM

Q: What about the TGI (MCF7 breast) of the same compound?
A: > 100 µM

Q: And the TGI (CAKI-1 renal)?
A: > 100 µM

Q: What about the TGI (UACC-62 melanoma) of the same compound?
A: > 100 µM

Q: What about the TGI (OVCAR-8 ovarian) of the same compound?
A: > 100 µM

Q: What about the TGI (SK-OV-3 ovarian) of the same compound?
A: > 100 µM

Q: What about the TGI (RXF 393 renal) of the same compound?
A: > 100 µM

Q: And the TGI (786-0 renal)?
A: > 100 µM

Q: And the TGI (OVCAR-3 ovarian)?
A: > 100 µM

Q: And the TGI (SK-MEL-2 melanoma)?
A: > 100 µM

Q: What about the TGI (SK-MEL-5 melanoma) of the same compound?
A: > 100 µM

Q: And the TGI (HCT-15 colon)?
A: > 100 µM

Q: And the TGI (KM12 colon)?
A: > 100 µM

Q: And the TGI (NCI-H522 lung)?
A: > 100 µM

Q: What about the TGI (A549 NSCLC) of the same compound?
A: > 100 µM

Q: What about the TGI (TK-10 renal) of the same compound?
A: > 100 µM

Q: And the TGI (A498 renal)?
A: > 100 µM

Q: What about the TGI (SNB-75 CNS) of the same compound?
A: > 100 µM

Q: What about the TGI (OVCAR-5 ovarian) of the same compound?
A: > 100 µM

Q: And the TGI (U251 CNS)?
A: > 100 µM

Q: What about the TGI (SNB-19 CNS) of the same compound?
A: > 100 µM

Q: And the TGI (SR leukemia)?
A: > 100 µM

Q: And the TGI (SW-620 colon)?
A: > 100 µM

Q: And the TGI (SK-MEL-28 melanoma)?
A: > 100 µM

Q: What about the TGI (T-47D breast) of the same compound?
A: > 100 µM

Q: And the TGI (HOP-92 NSCLC)?
A: > 100 µM

Q: And the TGI (M14 melanoma)?
A: > 100 µM

Q: And the TGI (HS 578T breast)?
A: > 100 µM

Q: And the TGI (NCI-H23 lung)?
A: > 100 µM

Q: What about the TGI (BT-549 breast) of the same compound?
A: > 100 µM

Q: And the TGI (OVCAR-4 ovarian)?
A: > 100 µM

Q: And the TGI (HCT-116 colon)?
A: > 100 µM

Q: And the TGI (SF-295 CNS)?
A: > 100 µM

Q: And the TGI (SN12C renal)?
A: > 100 µM

Q: And the TGI (DU-145 prostate)?
A: > 100 µM

Q: What about the TGI (EKVX NSCLC) of the same compound?
A: > 100 µM
